The values that follow come from ChEMBL document CHEMBL1135075, “Synthesis and biological evaluation of imidazol-2-one and 2-cyanoiminoimidazole derivatives: novel series of PDE4 inhibitors” (Bioorg Med Chem Lett, 2002).

The target in experiment [1] is 3',5'-cyclic-AMP phosphodiesterase 4B (Homo sapiens, UniProt Q07343). The experiment can be described thus: Inhibitory activity against recombinant phosphodiesterase 4B (PDE4B) of human mononuclear lymphocytes.
The subject of another experiment is Rattus norvegicus. The experiment can be described thus: Tested in vivo for lowest active dose that induced inhibitory effect on gastric emptying in rats. The experiment is classed as functional, Stomach.
Experiment [2] deals with Mus musculus. The experiment can be described thus: Evaluated for antiinflammatory activity in the TPA induced ear inflammation model at a dose 2 mg/kg (50 ug). The format is functional.
The test system of experiment [3] is Mus musculus. The experiment in a line: Evaluated for antiinflammatory activity in the TPA induced ear inflammation model at a dose 1 mg/kg (25 ug). The experiment is classed as functional.
A further experiment has as its target Phosphodiesterase 4 (Rattus norvegicus, UniProt P14270+P14646+P14644+P54748). The experiment can be described thus: Displacement of [3H]rolipram from rat forebrain membrane. The experiment is classed as tissue-based, Brain. In general terms: Displacement assays read how much labelled ligand stays bound in the presence of the test substance.

The term IC50 denotes the point on the concentration scale where inhibition reaches its midpoint. What is called inhibition in vivo is the drop in the measured response relative to a control, in per cent. Usually Ki stands for the equilibrium dissociation constant of an inhibitor or competing ligand from its target. A lower Ki goes with a stronger hold on the target.

The structures appear in SMILES notation.

3',5'-cyclic-AMP phosphodiesterase 4B, sequence (Q07343 whole entry): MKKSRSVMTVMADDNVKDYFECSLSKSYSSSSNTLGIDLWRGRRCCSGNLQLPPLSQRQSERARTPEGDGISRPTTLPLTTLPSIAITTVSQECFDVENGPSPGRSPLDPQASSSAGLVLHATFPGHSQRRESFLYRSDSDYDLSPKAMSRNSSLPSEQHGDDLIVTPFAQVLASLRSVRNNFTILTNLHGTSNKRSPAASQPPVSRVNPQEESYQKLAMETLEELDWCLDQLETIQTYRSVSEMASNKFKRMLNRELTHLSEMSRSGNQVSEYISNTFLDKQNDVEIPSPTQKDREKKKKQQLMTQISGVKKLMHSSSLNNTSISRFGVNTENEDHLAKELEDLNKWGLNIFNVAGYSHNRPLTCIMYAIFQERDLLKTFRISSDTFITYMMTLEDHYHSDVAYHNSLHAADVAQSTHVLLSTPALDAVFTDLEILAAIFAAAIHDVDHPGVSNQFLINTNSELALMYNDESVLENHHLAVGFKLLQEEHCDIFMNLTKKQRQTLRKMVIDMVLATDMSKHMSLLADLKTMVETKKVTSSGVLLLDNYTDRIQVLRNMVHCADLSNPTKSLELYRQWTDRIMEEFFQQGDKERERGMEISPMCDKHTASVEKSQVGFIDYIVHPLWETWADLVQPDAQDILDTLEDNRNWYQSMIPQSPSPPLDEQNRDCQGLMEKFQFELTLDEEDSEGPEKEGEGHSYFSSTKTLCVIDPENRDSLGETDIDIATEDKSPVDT

`COc1ccc(C(C)(C)Cn2ccnc2O)cc1OC1CCCC1`: the concentration for half-maximal inhibition (IC50) in experiment [1] amounted to 367 nM. The LAD in the experiment with Rattus norvegicus amounted to 0.63 mg/kg.
For `CC(Cn1ccnc1O)c1ccc(OC(F)F)c(OC2CCCC2)c1` (centres undefined), in that order: under 10 nM and 0.02 mg/kg.
As to `COc1ccc(C2(Cn3ccnc3O)CC2)cc1OC1CCCC1`, the IC50 in experiment [1] was 341 nM. This compound showed an inhibition in vivo at 2 mg/kg with Mus musculus [2] of 66%. The compound also showed an LAD in the experiment on Rattus norvegicus of 0.63 mg/kg. In the experiment on Mus musculus [3], at 1 mg/kg the inhibition in vivo was 18%.
As to `COc1ccc(C(C)Cn2ccnc2O)cc1OC1CCCC1` (centres undefined), the IC50 in experiment [1] worked out at 24.1 nM. The compound further showed an LAD in the experiment with Rattus norvegicus of 0.01 mg/kg.
For the compound `COc1ccc(C(C)Cn2ccnc2NC#N)cc1OCCC1Cc2ccccc2C1` (centres undefined), in experiment [1], the IC50 came out at 67.6 nM. Further, in the experiment with Rattus norvegicus, the LAD is over 1.25 mg/kg.
In the experiment with Mus musculus [2], `COc1ccc(C(C)Cn2ccnc2NC#N)cc1OC1CCCC1` (centres undefined) returned an inhibition in vivo at 2 mg/kg of 84%. Also, the LAD in the experiment with Rattus norvegicus is 1.25 mg/kg. This compound also displayed an inhibition in vivo at 1 mg/kg with Mus musculus [3] of 50%.
Consider `CC(Cn1ccnc1NC#N)c1ccc(OC(F)F)c(OCC2CC2)c1` (centres undefined), for which the inhibition in vivo at 2 mg/kg with Mus musculus [2] worked out at 52%. The LAD with Rattus norvegicus is 0.08 mg/kg. Besides, the inhibition in vivo at 1 mg/kg in the experiment with Mus musculus [3] was 22%.
For the compound `CC(Cn1ccnc1O)c1ccc(OC(F)(F)F)c(OC2CCCC2)c1` (centres undefined), the IC50 in experiment [1] is over 1000 nM. In the experiment with Rattus norvegicus, this compound registered an LAD of 1.25 mg/kg.
In the case of `COc1ccc(C(C)Cn2ccnc2NC#N)cc1OC1CCOC1` (centres undefined), the inhibition in vivo at 2 mg/kg with Mus musculus [2] stood at 71%. The compound also registered an LAD with Rattus norvegicus of over 1.25 mg/kg. This compound showed an inhibition in vivo at 1 mg/kg with Mus musculus [3] of 38%.
On to `COc1ccc(C(F)Cn2ccnc2O)cc1OC1Cc2ccccc2C1` (centres undefined), for which the IC50 in experiment [1] was found to be 24.3 nM. Moreover, the LAD in the experiment with Rattus norvegicus came to 0.08 mg/kg.
As for `COc1ccc(C(C)Cn2ccnc2O)cc1OC1CCOC1` (centres undefined), in the experiment on Rattus norvegicus, the LAD worked out at 0.02 mg/kg.
For the compound `CC(Cn1ccnc1NC#N)c1ccc(OC(F)F)c(OCCCCCc2ccccc2)c1` (centres undefined), the IC50 in experiment [1] turned out to be 28.4 nM. This compound also registered an inhibition in vivo at 2 mg/kg in the experiment on Mus musculus [2] of 69%. The compound also showed an LAD in the experiment with Rattus norvegicus of over 1.25 mg/kg. The inhibition in vivo at 1 mg/kg in the experiment on Mus musculus [3] was 41%.
Regarding `COc1ccc(C(C)Cn2ccnc2NC#N)cc1OCCCCCc1ccccc1` (centres undefined), in the experiment with Mus musculus [2], 2 mg/kg produced 77% inhibition in vivo. In addition, in the experiment with Rattus norvegicus, the LAD is over 1.25 mg/kg. In the experiment with Mus musculus [3], this compound returned an inhibition in vivo at 1 mg/kg of 36%.
As to `COc1ccc([C@H](C)Cn2ccnc2NC#N)cc1OC1Cc2ccccc2C1`, the Ki at Phosphodiesterase 4 is 220 nM. In the experiment with Rattus norvegicus, this compound yielded an LAD of over 5 mg/kg. The inhibition in vivo at 1 mg/kg in the experiment with Mus musculus [3] was 54%.
On Phosphodiesterase 4, `COc1ccc([C@@H](C)Cn2cc[nH]/c2=N\C#N)cc1OC1Cc2ccccc2C1` yielded a Ki of 63 nM. The compound further came in with an LAD in the experiment with Rattus norvegicus of 2.5 mg/kg. In addition, the inhibition in vivo at 1 mg/kg in the experiment on Mus musculus [3] was 56%.
As for `COc1ccc(C(O)Cn2ccnc2O)cc1OC1Cc2ccccc2C1` (centres undefined), in experiment [1], the IC50 was determined as 399 nM. The same compound came in with an LAD in the experiment with Rattus norvegicus of 0.31 mg/kg.
With `COc1ccc(C(C)C(C)n2ccnc2O)cc1OC1CCCC1` (centres undefined), the IC50 in experiment [1] was 277 nM.
Turning to `COc1ccc(CCn2ccnc2O)cc1OC1CCCC1`, in experiment [1], the IC50 was 110 nM. Further, the inhibition in vivo at 2 mg/kg in the experiment on Mus musculus [2] stood at 81%. The compound also yielded an LAD in the experiment on Rattus norvegicus of 0.08 mg/kg. The compound also gave an inhibition in vivo at 1 mg/kg in the experiment on Mus musculus [3] of 32%.
As to `COc1ccc(C(C)Cn2ccnc2NC#N)cc1OC1Cc2ccccc2C1` (centres undefined), the Ki at Phosphodiesterase 4 turned out to be 180 nM. The compound further had an inhibition in vivo at 2 mg/kg in the experiment on Mus musculus [2] of 82%. In the experiment with Rattus norvegicus, the LAD turned out to be 2.5 mg/kg. The compound further came in with an inhibition in vivo at 1 mg/kg with Mus musculus [3] of 51%.
For the compound `COc1ccc(C(C)Cn2ccnc2NC#N)cc1OCC1CC1` (centres undefined), 2 mg/kg produced 78% inhibition in vivo with Mus musculus [2]. In the experiment on Rattus norvegicus, this compound showed an LAD of 1.25 mg/kg. This compound showed an inhibition in vivo at 1 mg/kg in the experiment with Mus musculus [3] of 38%.
Take `COc1ccc(C(C)Cn2ccnc2O)cc1OC1CC2CCC1C2` (centres undefined): in experiment [1], the half-inhibitory concentration (IC50) turned out to be 21 nM. Also, in the experiment on Mus musculus [2], testing at 2 mg/kg gave an inhibition in vivo of 90%. Also, the LAD in the experiment on Rattus norvegicus worked out at 0.01 mg/kg. For the same compound, 1 mg/kg produced 34% inhibition in vivo with Mus musculus [3].
On to `COc1ccc(C(C)(F)Cn2ccnc2O)cc1OC1CCOC1` (centres undefined), for which, in experiment [1], the IC50 came out at 327 nM. Moreover, the LAD in the experiment with Rattus norvegicus amounted to 0.31 mg/kg.
For `COc1ccc(C(C)(O)Cn2ccnc2O)cc1OC1CCOC1` (centres undefined), in that order: over 1000 nM and 0.31 mg/kg.
As for `Oc1nccn1CC1(c2ccc(OC(F)F)c(OC3CCCC3)c2)CC1`, the IC50 in experiment [1] came out at 39.2 nM. Further, the LAD in the experiment on Rattus norvegicus was determined as 0.08 mg/kg.
In the case of `COc1ccc(C(=O)Cn2ccnc2O)cc1OC1CCCC1`, the IC50 in experiment [1] was 486 nM. For the same compound, in the experiment with Rattus norvegicus, the LAD turned out to be 1.25 mg/kg.
`COc1ccc(C(=O)Nc2c(Cl)cncc2Cl)cc1OC1CCCC1` yielded an inhibition in vivo at 2 mg/kg in the experiment with Mus musculus [2] of 69%. This compound displayed an LAD in the experiment with Rattus norvegicus of 0.5 mg/kg. In the experiment on Mus musculus [3], this compound had an inhibition in vivo at 1 mg/kg of 43%.
Consider `COc1ccc(C(C)Cn2ccnc2O)cc1OCC1CC1` (centres undefined), for which, in experiment [1], the IC50 is 85.8 nM. The same compound gave a Ki at Phosphodiesterase 4 of 3.5 nM. In the experiment on Mus musculus [2], this compound came in with an inhibition in vivo at 2 mg/kg of 74%. The same compound showed an LAD with Rattus norvegicus of 0.01 mg/kg. In addition, the inhibition in vivo at 1 mg/kg in the experiment with Mus musculus [3] is 56%.
For `COc1ccc([C@]2(C#N)CC[C@@H](C(=O)O)CC2)cc1OC1CCCC1` [CILOMILAST], the inhibition in vivo at 2 mg/kg in the experiment with Mus musculus [2] worked out at 88%. In addition, in the experiment with Rattus norvegicus, the LAD is 5 mg/kg. In the experiment on Mus musculus [3], this compound registered an inhibition in vivo at 1 mg/kg of 69%.
In the case of `COc1ccc(C2CNC(=O)C2)cc1OC1CCCC1` (centres undefined) [ROLIPRAM], the inhibition in vivo at 2 mg/kg in the experiment on Mus musculus [2] is 43%. This compound came in with an LAD in the experiment with Rattus norvegicus of 0.04 mg/kg. In the experiment with Mus musculus [3], testing at 1 mg/kg gave an inhibition in vivo of 6%.
